Measured values taken from PMC2828546, “Screening-based discovery of drug-like O-GlcNAcase inhibitor scaffolds” (Febs Letters, 2010).
“And” between values parts separate entries of the source, which are not always exact repeats. Identical values can stand only once. “Also recorded” adds a separate entry of the source. Like-named read-outs stand apart in the source and are kept apart here.

What was measured:
CpOGA [1] = target: T1, CpOGA (Clostridium perfringens, UniProt Q0TR53); assay: biochemical; details: read-out: inhibition of CpOGA in the screen
hOGA [2] = target: T2, hOGA (Homo sapiens, UniProt O60502); assay: hOGA inhibition, fluorogenic 4MU-NAG substrate; format: biochemical; details: for IC50: 80 μM 4MU-GlcNAc (Km), 60 min, pH 5.7; for hOGA BEI (Binding Efficiency Index): BEI = -log(Ki)/M, M in kDa, Ki from IC50 by Cheng-Prusoff; for Selectivity (HexA/B/hOGA): ratio of HexA/B to hOGA inhibition constants
T2 construct: made in house
T2 sequence (O60502 1-916): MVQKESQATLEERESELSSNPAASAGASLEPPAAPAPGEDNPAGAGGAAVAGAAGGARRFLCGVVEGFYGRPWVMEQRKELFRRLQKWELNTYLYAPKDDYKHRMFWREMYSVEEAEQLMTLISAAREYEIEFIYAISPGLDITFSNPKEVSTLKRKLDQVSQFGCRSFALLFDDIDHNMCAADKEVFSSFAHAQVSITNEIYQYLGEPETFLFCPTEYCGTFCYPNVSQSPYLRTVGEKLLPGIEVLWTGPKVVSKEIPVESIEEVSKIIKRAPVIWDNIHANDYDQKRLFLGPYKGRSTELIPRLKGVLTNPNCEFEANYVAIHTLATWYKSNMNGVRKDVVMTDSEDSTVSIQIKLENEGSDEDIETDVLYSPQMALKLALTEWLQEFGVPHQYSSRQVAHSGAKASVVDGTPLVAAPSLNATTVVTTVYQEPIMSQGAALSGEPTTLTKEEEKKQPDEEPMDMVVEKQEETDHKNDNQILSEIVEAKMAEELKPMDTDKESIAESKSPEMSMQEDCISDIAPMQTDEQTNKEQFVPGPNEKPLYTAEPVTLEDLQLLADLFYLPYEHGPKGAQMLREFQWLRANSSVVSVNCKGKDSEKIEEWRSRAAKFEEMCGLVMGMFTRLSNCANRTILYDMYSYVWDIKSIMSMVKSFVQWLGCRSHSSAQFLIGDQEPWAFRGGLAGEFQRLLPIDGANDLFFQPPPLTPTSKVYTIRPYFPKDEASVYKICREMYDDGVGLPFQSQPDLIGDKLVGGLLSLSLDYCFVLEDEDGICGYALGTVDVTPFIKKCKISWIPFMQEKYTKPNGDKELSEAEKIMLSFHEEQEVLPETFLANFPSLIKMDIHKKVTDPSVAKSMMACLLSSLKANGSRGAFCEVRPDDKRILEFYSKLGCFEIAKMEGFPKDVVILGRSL

human hexosaminidase A/B = assay: HexA/B inhibition, fluorogenic 4MU-NAG substrate; format: biochemical; details: 230 μM substrate (Km), 15 min, pH 5.7
Protocol: Further kinetic experiments to determine the mode of inhibition were carried out according to the procedure described previously. […] IC50 measurements with CpOGA, hOGA and a mixture of human hexosaminidase A/B activities (Sigma A6152) against the compounds were performed using the fluorogenic 4MU-NAG substrate and standard reaction mixtures as described previously with some changes [[39,31,40]]. Standard reaction mixtures (50 μl) contained 0.2 nM CpOGA, 2 nM hOGA or 50 μ units unit/ml HexA/B in McIlvaine buffer (0.2 M Na2HPO4 mixed with 0.1 M citric acid to pH 5.7) supplemented with 0.1 mg/ml BSA. […] The reactions were run at room temperature for 7 min (CpOGA), 60 min (hOGA) or 15 min (HexA/B).

CpOGA [3] = target: T1, CpOGA; assay: biochemical
CpOGA [4] = target: T1, CpOGA; format: biochemical
hOGA [5] = target: T2, hOGA; details: cited from earlier work
CpOGA [6] = target: T1, CpOGA; details: read-out: CpOGA Ki; cited from earlier work
CpOGA [7] = target: T1, CpOGA; details: read-out: CpOGA IC50; cited from earlier work

T1 sequence (Q0TR53 31-624 limits assumed): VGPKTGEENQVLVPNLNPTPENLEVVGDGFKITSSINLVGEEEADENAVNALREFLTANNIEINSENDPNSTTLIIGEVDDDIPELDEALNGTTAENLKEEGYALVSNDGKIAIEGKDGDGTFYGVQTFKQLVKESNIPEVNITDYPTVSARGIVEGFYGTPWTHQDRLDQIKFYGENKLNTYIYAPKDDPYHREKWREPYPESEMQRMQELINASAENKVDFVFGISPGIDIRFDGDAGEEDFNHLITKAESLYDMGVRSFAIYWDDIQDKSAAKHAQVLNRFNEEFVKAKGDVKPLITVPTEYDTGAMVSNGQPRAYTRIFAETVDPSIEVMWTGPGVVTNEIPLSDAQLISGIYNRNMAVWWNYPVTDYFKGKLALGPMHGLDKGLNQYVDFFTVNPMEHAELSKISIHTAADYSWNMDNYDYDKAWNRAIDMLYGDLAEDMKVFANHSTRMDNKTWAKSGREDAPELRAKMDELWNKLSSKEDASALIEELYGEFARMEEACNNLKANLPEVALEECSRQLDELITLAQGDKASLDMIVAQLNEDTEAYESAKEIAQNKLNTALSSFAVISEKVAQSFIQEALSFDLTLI

Compound c1ccc(CNc2ncnc3nc[nH]c23)cc1 [6-benzylaminopurine] has an inhibition at 30.2 µM (CpOGA [1]) of 30%.

Work on CC(=O)Nc1nnc(S(N)(=O)=O)s1 [Acetazolamide, acetazolamide] yielded an IC50 (hOGA [2]; 2 nM hOGA, read-out: hOGA IC50) of 47 ± 0.1 µM.

For O=C1CC2(CCCC2)CC(=O)N1CCCCN1CCN(c2ncccn2)CC1 [Buspirone, buspirone], the IC50 (human hexosaminidase A/B) was 47 ± 3 µM and the IC50 (hOGA [2]; 2 nM hOGA, read-out: hOGA IC50) was 25 ± 0.1 µM.

For Cn1c(=O)c2c(ncn2CC(O)CO)n(C)c1=O (centres unmarked) [Diprophylline, diprophylline], the IC50 (human hexosaminidase A/B) was 200 ± 30 µM, the IC50 (hOGA [2]; 2 nM hOGA, read-out: hOGA IC50) was over 100 µM and the “hOGA BEI (Binding Efficiency Index)” value (hOGA [2]) was 16. For the same compound, the “Selectivity (HexA/B/hOGA)” value (hOGA [2]) was 1.6, the IC50 (CpOGA [3]) was 60 ± 10 µM and the “inhibition mode against CpOGA” value (CpOGA [4]) was “compete for binding to the same CpOGA active site; also recorded: competitive inhibitor”.

For CC(=O)N1CCN(c2ccc(OCC3COC(Cn4ccnc4)(c4ccc(Cl)cc4Cl)O3)cc2)CC1 (centres unmarked) [Ketoconazole, ketoconazole], the IC50 (human hexosaminidase A/B) was 11 ± 1 µM, the IC50 (hOGA [2]; 2 nM hOGA, read-out: hOGA IC50) was 4 µM and 4.3 µM and the “inhibition mode against CpOGA” value (CpOGA [4]) was “compete for binding to the same CpOGA active site”.

In the case of CCCC1=N[C@@H]2[C@@H](O)[C@H](O)[C@@H](CO)O[C@@H]2S1 [NButGT], the “selectivity for hOGA” value (hOGA [5]; thiazoline derivative, selectivity for hOGA) is listed as 600 fold.

Work on CNc1ncnc2nc[nH]c12 [N^6-methyladenine] yielded an IC50 (human hexosaminidase A/B) of 300 µM and an IC50 (hOGA [2]; 2 nM hOGA, read-out: hOGA IC50) of 4 ± 0.3 µM.

In the case of CC(=O)N[C@H]1/C(=N/OC(=O)Nc2ccccc2)O[C@H](CO)[C@@H](O)[C@@H]1O [PUGNAc], the Ki (CpOGA [6]) is given as 0.005 µM.

In the case of CC1CCC(NC(=O)N(CCCl)N=O)CC1 (centres unmarked) [Semustine, semustine], the IC50 (human hexosaminidase A/B) is reported as 2500 µM, the “hOGA BEI (Binding Efficiency Index)” value (hOGA [2]) is reported as 16 and the IC50 (hOGA [2]; hOGA IC50, 2 nM hOGA) is reported as over 100 µM. The “Selectivity (HexA/B/hOGA)” value (hOGA [2]) was 9 and the “inhibition mode against CpOGA” value (CpOGA [4]) was “compete for binding to the same CpOGA active site”.

In the case of CN(N=O)C(=O)N[C@H]1C(O)O[C@H](CO)[C@@H](O)[C@@H]1O (some centres unmarked) [Streptozotocin, streptozotocin], the IC50 (CpOGA [7]) is given as 30 µM, the Ki (hOGA [5]; Ki value from literature, read-out: hOGA Ki (printed in hOGA IC50 column)) is given as 1500 µM and the “hOGA BEI (Binding Efficiency Index)” value (hOGA [2]) is given as 11. The “Selectivity (HexA/B/hOGA)” value (hOGA [2]) was 30.
